Experimental data reported in patent US20240327787A1, “CULTURE MEDIUM, COATING MATRIX AND METHOD FOR EXPANDING MIDBRAIN DOPAMINERGIC PROGENITOR CELLS” (NUWACELL BIOTECHNOLOGIES CO., LTD., priority 2022, published 2024).

Experiments:
Format in all cases: cell-based, human
imDAPs [1] = experiment: qRT-PCR analysis of imDAP-specific markers during expansion; conditions: 3 μM CHIR99021 vs 0 and 1.25 μM; 5 days expansion
Description: 1. For qRT-PCR analysis of mRNA gene expression, RNA should be harvested from at least 2×10^6 cells.
2. Harvest cells, add 350 μl of buffer RLT+1% (vol/vol) β-mercaptoethanol to the well, transfer the lysate to a 1.5 ml tube, and put it immediately on ice.
3. Perform RNA extraction using the Tiangen Kit (DP430), and follow the manufacturer's protocol ‘Purification of total RNA from animal and human cells’.
4. When the RNA extraction was completed, determine the RNA concentration using a Nanodrop instrument.
5. Perform the first-strand cDNA synthesis reaction with lug of RNA using the HiScript™ II Q RT SuperMIX for qPCR (+gDNA wiper) Kit (Vazyme, #R223-01) for RT-qPCR. Follow the manufacturer's ‘First-Strand cDNA Synthesis’ protocol. This reaction would yield a 20μl product.
6. […]
8. Analyze the samples by running a quantitative PCR on the LightCycler 480 instrument using a 40× cycle two-step protocol with a 60° C., 60 sec annealing/elongation step and a 95° C., 30 sec denaturation step. […]
imDAPs were produced according to the method described in CN201910169525.0. […] When imDAPs reach 100% confluence (4-5 days), cells were passaged enzymatically with 1× TrypLE, centrifuged at 250 g for 5 minutes, counted and replaced on new VTN-coated plates (1 μg/cm^2) at a density of 1×10^5 cells/cm^2 in the expansion medium. imDAPs were continuously expanded for 6 passages. […]

imDAPs [2] = experiment: qRT-PCR analysis of mDA maturation associated markers; conditions: 1 μM IWR1 vs without IWR1; day 7
Description: 1. For qRT-PCR analysis of mRNA gene expression, RNA should be harvested from at least 2×10^6 cells. 2. Harvest cells, add 350 μl of buffer RLT+1% (vol/vol) β-mercaptoethanol to the well, transfer the lysate to a 1.5 ml tube, and put it immediately on ice. 3. Perform RNA extraction using the Tiangen Kit (DP430), and follow the manufacturer's protocol 'Purification of total RNA from animal and human cells'. 4. When the RNA extraction was completed, determine the RNA concentration using a Nanodrop instrument. 5. Perform the first-strand cDNA synthesis reaction with lug of RNA using the HiScriptTM II Q RT SuperMIX for qPCR (+gDNA wiper) Kit (Vazyme, #R223-01) for RT-qPCR. Follow the manufacturer's 'First-Strand cDNA Synthesis' protocol. This reaction would yield a 20μl product. 6. Dilute the 10 μl cDNA product in 80 μl of nuclease-free water. 7. […] Analyze the samples by running a quantitative PCR on the LightCycler 480 instrument using a 40× cycle two-step protocol with a 60° C., 60 sec annealing/elongation step and a 95° C., 30 sec denaturation step. […] Cells were collected and counted by Vi-cell cytometer. The cells were analyzed by RT-qPCR for EN1, LMX1A, FOXA2, NURR1, SOX6 and TH gene expression. […]

imDAPs [3] = experiment: imDAP maturation, cell morphology and adhesion (bright-field); conditions: 1 μM IWR1 for at least 3 days vs without; VTN-coated; 1% HhPLT medium
Description: were produced according to the method described in CN201910169525.0, and expanded as described in Example 10. The expanded […] were seeded on VTN-coated (1 μg/cm^2) plates at a density of 5×10^5 cells/cm^2 (Day 0), and cultured in the maturation medium ([…]) supplemented with 1 μM IWR1. MM-P used in Example 11 contained the following components: NeurobasalTM medium, 1% (v/v) Glutamax, 0.5 mM Db-cAMP sodium salt, 200 μM ascorbic acid, 20 ng/ml BDNF, 20 ng/ml GDNF, 1 ng/ml TGF-β3, 10 μM DAPT, hPLT (0.5%, 1%, 2%). MM-H used in Example 11 contained the following components: NeurobasalTM medium, 1% (v/v) Glutamax, 0.5 mM Db-cAMP sodium salt, 200 μM ascorbic acid, 20 ng/ml BDNF, 20 ng/ml GDNF, 1 ng/ml TGF-β3, […], HhPLT (0.5%, 1%, 2%). MM-B used in Example 11 contained the following components: Neurobasal, 1% (v/v) Glutamax, 0.5 mM Db-cAMP sodium salt, 200 μM ascorbic acid, 20 ng/ml BDNF, 20 ng/ml GDNF, 1 ng/ml TGF-β 3, 10 μM DAPT, 2% (v/v) B27 (50×) (as control). The above HhPLT was produced from hPLT as follows. The hPLT was centrifuged at 3000 g for 30 min at 4° C. to obtain the supernatant, which was heated to 56° C. for 30 min. […] Cells were collected and counted by Vi-cell cytometer. The cells were analyzed by RT-qPCR for EN1, LMX1A, FOXA2, NURR1, SOX6 and TH gene expression. […]

SMILES	mDAP marker expression (EN1, LMX1A, FOXA2), qRT-PCR (FIG. 1C) (imDAPs [1])	expression of NURR1, SOX6 and TH, qRT-PCR (FIG. 7E) (imDAPs [2])	cell morphology on day 7 during maturation (FIG. 7D) (imDAPs [3])
Cc1cnc(-c2cnc(NCCNc3ccc(C#N)cn3)nc2-c2ccc(Cl)cc2Cl)[nH]1 [CHIR99021]	allowed better maintenance of mDAP marker expression		
O=C(Nc1cccc2cccnc12)c1ccc(N2C(=O)[C@@H]3[C@H](C2=O)[C@@H]2C=C[C@H]3C2)cc1 [IWR1]		increased	showed more obvious neural fibers
